In US20100104509A1, “HUMAN ANTIBODIES THAT BIND CD19 AND USES THEREOF” (Medarex, Inc., priority 2006, published 2010):

Tested on: B-cells (CD22) in human whole blood
Assay: Whole blood B-cell depletion assay
Assay type: cell-based
Details: overnight 37° C.; for % Change: B-cell depletion vs non-treated group
Method: To determine if the anti-CD19 antibodies were capable of depleting B-cells, a whole blood B-cell depletion assay was set up.
Human whole blood was purchased from AllCells Inc. (Berkeley, Calif.) and delivered the same day at room temperature. Two ml of whole blood was incubated in the absence or presence of […] of the indicated antibodies, or PBS as the untreated group. The blood-antibody mixture was incubated overnight at 37° C. with 5% CO2. On the day of the experiment, the blood was lysed twice with RBC lysis buffer at 1:10 ratio by incubating for 10 minutes followed by centrifugation. After the second spin, the cell pellets were washed once with FACS buffer (PBS plus Calcium and Magnesium with 2% FBS and 20% versene), and followed by FAGS staining with anti-CD3 antibody (Becton Dickinson) as the T-Cell makers and anti-CD22 antibody (Becton Dickinson) as a B-cell makers using standard Flow cytometry protocols. Cells were incubated on ice for 20 min prior to the final washes and resuspended in […] propidium iodide solution (Sigma) in FACS buffer. Data was collected by flow cytometry using a FASCalibur system and CellQuest software by Becton Dickinson, and analyzed via FlowJo software using lymphocyte size gating. Percent change was calculated by determining the % positive B-cells in the non-treated group minus the % positive B-cells in the antibody treated group divided by % positive B-cells in the non treated group times 100. From a healthy blood donor, 8.7% B-cells remained in the blood following an overnight incubation (no antibody). Incubating whole blood with […] of positive control Rituxan led to a 46% depletion in the number of B-cells when compared to the untreated, no antibody group.

Rituxan: positive control in the whole blood B-cell depletion assay [reference compound]
% Change: 46% | % Change (listed as Rituxan ®): 46.3% | % Positive (CD22) (1-30 mg/ml antibody): 4.7%
